The subject of one series is HIV. Nature of the series: anti-HIV activity, cellular assay. The series is classed as cell-based, human immunodeficiency virus 1 (HIV). The note with it: for antiviral activity: in words; for EC50: Human immunodeficiency virus 1, MT2, read-out: EC50, anti-HIV activity.
The subject of another series is MT-2. Nature of the series: cytotoxicity. Format: cell-based, human. Conditions: MT-2 cellular assay.
The subject of the next series is HCV. Nature of the series: anti-HCV activity. Format: cell-based. Conditions: Hepatitis C virus, read-out: EC50, anti-HCV activity.
Series [1] concerns herpes simplex virus-1 (HSV-1). Kind of series: effect on replication of HSV-1. The series is classed as cell-based.
The test system of another series is hepatitis B virus (HBV). Kind of series: effect on replication of HBV. The series is classed as cell-based.
The subject of a further series is HSV-2. Nature of the series: effect on replication of HSV-2. Format: cell-based.

With `CCCCOc1c2cc(C(=O)Nc3cc(C(=O)O)cc(C(=O)NC4CCCCC4)c3)cc1Cc1cc(C(=O)Nc3cc(C(=O)O)cc(C(=O)NC4CCCCC4)c3)cc(c1OCCCC)Cc1cc(C(=O)Nc3cc(C(=O)O)cc(C(=O)NC4CCCCC4)c3)cc(c1OCCCC)Cc1cc(C(=O)Nc3cc(C(=O)O)cc(C(=O)NC4CCCCC4)c3)cc(c1OCCCC)C2` [Compound 3], the antiviral activity result with HIV is “little to no antiviral activity”.
On to `CCCCOc1c2cc(C(=O)NCCN)cc1Cc1cc(C(=O)NCCN)cc(c1OCCCC)Cc1cc(C(=O)NCCN)cc(c1OCCCC)Cc1cc(C(=O)NCCN)cc(c1OCCCC)C2` [Compound 7], for which, in the series with HIV, the antiviral activity entry is given as “lack of antiviral activity”.
Usually EC50 stands for the midpoint of the concentration-response curve. Turning to `O=C(O)c1cc(NC(=O)c2cc3c(OCc4ccccc4)c(c2)Cc2cc(C(=O)Nc4cc(C(=O)O)cc(C(=O)O)c4)cc(c2OCc2ccccc2)Cc2cc(C(=O)Nc4cc(C(=O)O)cc(C(=O)O)c4)cc(c2OCc2ccccc2)Cc2cc(C(=O)Nc4cc(C(=O)O)cc(C(=O)O)c4)cc(c2OCc2ccccc2)C3)cc(C(=O)O)c1` [Compound 11], the “ID50 (toxicity)” value in the series with MT-2 came to 18000 nM. Moreover, the EC50 in the series on HCV is 1400 nM; in the series on HIV it was 300 nM.
Consider `CCCCOc1c2cc(C(=O)Nc3cc(C(=O)O)cc(C(=O)O)c3)cc1Cc1cc(C(=O)Nc3cc(C(=O)O)cc(C(=O)O)c3)cc(c1OCCCC)Cc1cc(C(=O)Nc3cc(C(=O)O)cc(C(=O)O)c3)cc(c1OCCCC)Cc1cc(C(=O)Nc3cc(C(=O)O)cc(C(=O)O)c3)cc(c1OCCCC)C2` [Compound 2], for which the “effect on the replication of HSV-1” value in series [1] is reported as “no effect”. Moreover, the EC50 in the series on HCV was 1800 nM; in the series with HIV it was 300 nM. Further, the “effect on the replication of HBV” value in the series with hepatitis B virus (HBV) is given as “no effect”. Also, the “effect on the replication of HSV-2” value with HSV-2 is “no effect”. Further, the “potency against different laboratory HIV strains” value in the series with HIV (HIV-IIIB, NL-43, LaiM184V) is given as “equally potent”. Moreover, the “antiviral activity in different cell lines” value with HIV (MT-2, CEMx174, TZM-bl) is listed as “antiviral activity was retained in all these cell lines”.
As to `CCCCOc1c2cc(C(=O)Nc3cc(C(=O)O)cc(C(=O)OCc4ccccc4)c3)cc1Cc1cc(C(=O)Nc3cc(C(=O)O)cc(C(=O)OCc4ccccc4)c3)cc(c1OCCCC)Cc1cc(C(=O)Nc3cc(C(=O)O)cc(C(=O)OCc4ccccc4)c3)cc(c1OCCCC)Cc1cc(C(=O)Nc3cc(C(=O)O)cc(C(=O)OCc4ccccc4)c3)cc(c1OCCCC)C2` [Compound 1], the antiviral activity result in the series with HIV is on record as “little to no antiviral activity”.
For the compound `O=C(O)c1cc(NC(=O)c2cc3c(O)c(c2)Cc2cc(C(=O)Nc4cc(C(=O)O)cc(C(=O)O)c4)cc(c2O)Cc2cc(C(=O)Nc4cc(C(=O)O)cc(C(=O)O)c4)cc(c2O)Cc2cc(C(=O)Nc4cc(C(=O)O)cc(C(=O)O)c4)cc(c2O)C3)cc(C(=O)O)c1` [Compound 9], the 50% effective concentration (EC50) in the series with HCV was more than 50000 nM; in the series with HIV, 6700 nM.
